{"source": "patent US9023987B2", "about": "“Cell-permeable peptide” (Seoul National University R&DB Foundation, priority 2010, dated 2015)", "format_in_all_cases": "cell-based", "parameters_in_all_cases": "dose or concentration left out as unconfirmed", "key": {"[1]": {"system": "human mesenchymal stem cells (hMSC)", "test": "Cytotoxicity / cell proliferation by quantitative BrdU assay", "conditions": "24, 48, and 72 hours, FIG. 6", "experimental": "In order to confirm whether or not cell proliferation is affected by potential toxicity when the cell permeable peptide-bone differentiation inducing sequence conjugate and control domains are cultured with hMSC, a degree of cell proliferation was analysis by ELISA using BrdU. Since BrdU was introduced in chromosome instead of deoxy thymidine triphosphate (dTTP) at the time of DNA replication during a proliferation process of hMSC, a degree of introduction of BrdU may reflect a degree of proliferation of hMSC.\nFirst, After 1×10^3 human Mesenchymal Stem cells (hMSC) were plated into each well of 96-well plate, the degree of introduction of BrdU, that is, the degree of proliferation of hMSC was measured using a cell proliferation ELISA kit (BrdU (colorimetry); Boehringermanheim, Germany). Simply describing this method, the cells were treated with the cell permeable peptide-bone differentiation inducing sequence conjugate synthesized by the method in Example 1 and the domains of Example 2 at a concentration of […] and cultured in medium for forming hard tissue for 24, 48, and 72 hours. […] of BrdU (5-bromo-2′-deoxyuridine) was added to each of the groups before 24 hours of each culture time and further cultured for 24 hours. […] The reaction was terminated by 1N H2SO4, and then absorbance was measured using the ELISA reader (Bio-Tek, USA) at 450 nm."}, "[2]": {"system": "human mesenchymal stem cells (hMSC)", "test": "Cell permeability by flow cytometry", "conditions": "FITC-labeled, relative to bone differentiation inducing sequence, FIG. 3B", "experimental": "The domains synthesized in Example 1 and Comparative Examples 1 and 2 were labeled with a fluorescent material in order to measure cell permeability. 10 equivalents of fluorescein isothiocyanate (FITC) was bound to N-terminals of the synthesized domains by using triethylamine (1 ml per 1 g of resin). The synthesis of the peptide was confirmed by measuring the molecular weight thereof through MALDI-TOF.\nIn order to quantitatively confirm the cell permeability and cell permeation degree of fluorescence labeled magnetic nanoparticle conjugates, after 1×10^5 human mesenchymal stem cells (hMSC) were plated in each well of 6-well plate, the cells were cultured in a general medium for 20 hours (overnight incubation). […] fluorescence labeled cell permeable peptide-bone differentiation inducing sequence conjugate and […] fluorescence labeled bone differentiation inducing sequence that were obtained by binding FITC (SIGMA, USA) N-terminals of the cell permeable peptide-bone differentiation inducing sequence conjugate synthesized by the method in Example 1 and the domain in Comparative Example 2 to synthesize the fluorescence label conjugate and fluorescence label domain, followed by isolation and purification, were injected into each well and washed with the phosphate buffer solution (PBS) two times after 20, 40, 60, and 80 minutes of injection. […]"}, "[3]": {"system": "human mesenchymal stem cells (hMSC)", "test": "Cell differentiation ability by calcein staining", "conditions": "hard tissue-forming medium with calcein, 14 days, compared with PBS; FIG. 4A g-i", "experimental": "In order to confirm cell differentiation ability of the cell permeable peptide-bone differentiation inducing sequence conjugate, human mesenchymal stem cells (hMSC) were seeded in each well of a 4-well chamber slide at 5×10^3/well, and then incubated in a general medium for 20 hours (overnight) for cell stabilization. The cells were treated with the cell permeable peptide-bone differentiation inducing sequence conjugate synthesized from Example 1 and the bone differentiation inducing sequence of Comparative Example 2 of […] for each, and then incubated in a hard tissue forming medium containing calcein (calcium staining, green) for 14 days. The composition of the hard tissue-forming medium consisted of an MSCBM medium containing 15% FBS (fetal bovine serum), […] of L-ascorbic acid, 10^−7 M dexamethasone, 1% antibiotic-antimycotic solution, and 10 mM beta-glycerol phosphate. After completion of the incubation, the medium was removed, and then the cells were washed with phosphate buffer solution (PBS) twice. The cells washed with the phosphate buffer solution were fixed with 10% NBF (neutral buffered formalin), and then the nucleus was stained (Hoechst 33342, blue). […]"}}, "data": [{"substance": "NH2-GAPPPADSAP-SSRKKNPNCRRH-C-COONH2 (H-GAPPPADSAPSSRKKNPNCRRHC-NH2; cysteine pairing not given here) [Example 1]", "values": [{"measurement": "effect on cell proliferation (BrdU, DNA synthesis ability compared with PBS)", "setting": "[1]", "value": "did not affect the cell proliferation"}, {"measurement": "relative increase of fluorescence intensity (flow cytometry)", "setting": "[2]", "value": "≥ 10", "unit": "times"}, {"measurement": "calcein staining degree of phosphorylated calcium", "setting": "[3]", "value": "relatively strong staining degree of phosphorylated calcium"}]}]}
